≈ marks a conversion by molar mass, not a printed value.
How the values were obtained:
Assay in all cases: In vitro antibacterial evaluation: minimum inhibitory concentration (MIC), broth dilution method
Assay type in all cases: cell-based
Enterococcus sp. = settings: 18 hours at 35° C.
Summary of the method: (§1)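 Following NCCLS approved standard M7-A2, compounds are serially diluted from 64 to 0.06 μg/mL in Muller-Hinton II […] and inoculated at 5×10^5 CFU/mL; the MIC is the minimum concentration at which growth is inhibited.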

Streptococcus sp. = settings: 18 hours at 35° C.
Summary of the method: as §1

Staphylococcus sp. = test system: Staphylococcus sp.
Summary of the method: as §1

Escherichia coli = settings: 18 hours at 35° C.
Summary of the method: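 First, organisms are seeded at 5×10^5 CFU/mL into Muller-Hinton II […]. Next, antibiotic is applied across 64-0.06 μg/mL by broth dilution (NCCLS M7-A2). Finally, the lowest inhibitory concentration is recorded as MIC.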

[1] = broth dilution, inoculum 5×10^5 CFU/mL

CC(c1ccccc1)C1NC(=O)CNC(=O)C(CO)NC(=O)C(C(O)C2CNC(=N)N2C2OC(CO)C(O)C(O)C2O)NC(=O)C(C(O)C2CNC(=N)N2)NC(=O)C(Cc2ccc(OC3OC(CO)C(OC4OC(CO)C(O)C5OC6(CCCCCCCCCCCC6)OC45)C(O)C3O)cc2)NC1=O (stereo not drawn) [Example 210a, Cyclo[glycyl-β-methylphenylalanyl-O-[4-O-(2,3-O-cyclotridecylidenehexopyranosyl)hexopyranosyl]tyrosyl-3-(2-iminoimidazolidin-4-yl)seryl-3-(3-hexopyranosyl-2-iminoimidazolidin-4-yl)serylseryl]]
MIC Enterococcus avium (GC 4558) (Enterococcus sp.; Enterococcus avium (GC 4558)): 4 µg/mL (≈ 2.71 µM)
MIC Enterococcus faecalis (ATCC 29212) (Enterococcus sp.; Enterococcus faecalis (ATCC 29212)): 8 µg/mL (≈ 5.43 µM)
MIC Enterococcus faecalis (GC 2242) (Enterococcus sp.; Enterococcus faecalis (GC 2242)): 8 µg/mL (≈ 5.43 µM)
MIC Enterococcus faecalis (GC 2691) (Enterococcus sp.; Enterococcus faecalis (GC 2691)): 8 µg/mL (≈ 5.43 µM)
MIC Enterococcus faecalis (GC 3059) (Enterococcus sp.; Enterococcus faecalis (GC 3059)): 8 µg/mL (≈ 5.43 µM)
MIC Enterococcus faecalis (GC 4552) (Enterococcus sp.; Enterococcus faecalis (GC 4552)): 8 µg/mL (≈ 5.43 µM)
MIC Enterococcus faecalis (GC 4553) (Enterococcus sp.; Enterococcus faecalis (GC 4553)): 8 µg/mL (≈ 5.43 µM)
MIC Enterococcus faecalis (GC 4554) (Enterococcus sp.; Enterococcus faecalis (GC 4554)): 8 µg/mL (≈ 5.43 µM)
MIC Enterococcus faecalis (GC 6189) (Enterococcus sp.; Enterococcus faecalis (GC 6189)): 8 µg/mL (≈ 5.43 µM)
MIC Enterococcus faecium (GC 2243) (Enterococcus sp.; Enterococcus faecium (GC 2243)): 4 µg/mL (≈ 2.71 µM)
MIC Enterococcus faecium (GC 4556) (Enterococcus sp.; Enterococcus faecium (GC 4556)): 8 µg/mL (≈ 5.43 µM)
MIC Enterococcus faecium (GC 4557) (Enterococcus sp.; Enterococcus faecium (GC 4557)): 4 µg/mL (≈ 2.71 µM)
MIC Enterococcus avium (GC 4558) (Enterococcus sp.; [1]): 4 µg/mL (≈ 2.71 µM)
MIC Enterococcus faecalis (ATCC 29212) (Enterococcus sp.; [1]): 8 µg/mL (≈ 5.43 µM)
MIC Enterococcus faecalis (GC 2242) (Enterococcus sp.; [1]): 8 µg/mL (≈ 5.43 µM)
MIC Enterococcus faecalis (GC 2691) (Enterococcus sp.; [1]): 8 µg/mL (≈ 5.43 µM)
MIC Enterococcus faecalis (GC 3059) (Enterococcus sp.; [1]): 8 µg/mL (≈ 5.43 µM)
MIC Enterococcus faecalis (GC 4552) (Enterococcus sp.; [1]): 8 µg/mL (≈ 5.43 µM)
MIC Enterococcus faecalis (GC 4553) (Enterococcus sp.; [1]): 8 µg/mL (≈ 5.43 µM)
MIC Enterococcus faecalis (GC 4554) (Enterococcus sp.; [1]): 8 µg/mL (≈ 5.43 µM)
MIC Enterococcus faecalis (GC 6189) (Enterococcus sp.; [1]): 8 µg/mL (≈ 5.43 µM)
MIC Enterococcus faecium (GC 2243) (Enterococcus sp.; [1]): 4 µg/mL (≈ 2.71 µM)
MIC Enterococcus faecium (GC 4556) (Enterococcus sp.; [1]): 8 µg/mL (≈ 5.43 µM)
MIC Enterococcus faecium (GC 4557) (Enterococcus sp.; [1]): 4 µg/mL (≈ 2.71 µM)
MIC Streptococcus agalactiae (GC 4564) (Streptococcus sp.; Streptococcus agalactiae (GC 4564)): 2 µg/mL (≈ 1.36 µM)
MIC Streptococcus pneumoniae (ATCC 6301) (Streptococcus sp.; Streptococcus pneumoniae (ATCC 6301)): 0.5 µg/mL (≈ 0.339 µM)
MIC Streptococcus pneumoniae (GC 1894) (Streptococcus sp.; Streptococcus pneumoniae (GC 1894)): <0.06 µg/mL
MIC Streptococcus pneumoniae (GC 4565) (Streptococcus sp.; Streptococcus pneumoniae (GC 4565)): 0.25 µg/mL (≈ 0.17 µM)
MIC Streptococcus pyogenes (GC 4563) (Streptococcus sp.; Streptococcus pyogenes (GC 4563)): 1 µg/mL (≈ 0.679 µM)
MIC Streptococcus agalactiae (GC 4564) (Streptococcus sp.; [1]): 2 µg/mL (≈ 1.36 µM)
MIC Streptococcus pneumoniae (ATCC 6301) (Streptococcus sp.; [1]): 0.5 µg/mL (≈ 0.339 µM)
MIC Streptococcus pneumoniae (GC 1894) (Streptococcus sp.; [1]): <0.06 µg/mL
MIC Streptococcus pneumoniae (GC 4565) (Streptococcus sp.; [1]): 0.25 µg/mL (≈ 0.17 µM)
MIC Streptococcus pyogenes (GC 4563) (Streptococcus sp.; [1]): 1 µg/mL (≈ 0.679 µM)
MIC Staphylococcus aureus (ATCC 29213) (Staphylococcus sp.; strain ATCC 29213): 4 µg/mL (≈ 2.71 µM)
MIC Staphylococcus aureus (GC 1131) (Staphylococcus sp.; strain GC 1131): 4 µg/mL (≈ 2.71 µM)
MIC Staphylococcus aureus (GC 3051) (Staphylococcus sp.; strain GC 3051): 8 µg/mL (≈ 5.43 µM)
MIC Staphylococcus aureus (GC 3053) (Staphylococcus sp.; strain GC 3053): 4 µg/mL (≈ 2.71 µM)
MIC Staphylococcus aureus (GC 4541) (Staphylococcus sp.; strain GC 4541): 4 µg/mL (≈ 2.71 µM)
MIC Staphylococcus aureus (GC 4542) (Staphylococcus sp.; strain GC 4542): 8 µg/mL (≈ 5.43 µM)
MIC Staphylococcus aureus-SMITH (GC 4543) (Staphylococcus sp.; strain GC 4543): 4 µg/mL (≈ 2.71 µM)
MIC Staphylococcus aureus (GC 4544) (Staphylococcus sp.; strain GC 4544): 8 µg/mL (≈ 5.43 µM)
MIC Staphylococcus aureus (GC 4545) (Staphylococcus sp.; strain GC 4545): 4 µg/mL (≈ 2.71 µM)
MIC Staphylococcus haemolyticus (GC 4546) (Staphylococcus sp.; strain GC 4546): 8 µg/mL (≈ 5.43 µM)
MIC Coagulase Negative Staphylococcus (GC 4547) (Staphylococcus sp.; strain GC 4547): 4 µg/mL (≈ 2.71 µM)
MIC Coagulase Negative Staphylococcus (GC 4548) (Staphylococcus sp.; strain GC 4548): 4 µg/mL (≈ 2.71 µM)
MIC Coagulase Negative Staphylococcus (GC 4549) (Staphylococcus sp.; strain GC 4549): 2 µg/mL (≈ 1.36 µM)
MIC Coagulase Negative Staphylococcus (GC 4551) (Staphylococcus sp.; strain GC 4551): 4 µg/mL (≈ 2.71 µM)
MIC Coagulase Negative Staphylococcus (GC 6257) (Staphylococcus sp.; strain GC 6257): 4 µg/mL (≈ 2.71 µM)
MIC Escherichia coli (ATCC 25922) (Escherichia coli; Escherichia coli (ATCC 25922)): >64 µg/mL
MIC Escherichia coli (GC 4559) (Escherichia coli; Escherichia coli (GC 4559)): >64 µg/mL
MIC Escherichia coli (GC 4560) (Escherichia coli; Escherichia coli (GC 4560)): 16 µg/mL (≈ 10.9 µM)

Source: patent US8247211B2, “Glycopeptide antibiotics” (American Cyanamid Company, priority 2001, dated 2012)
